# In patent US9176131B2, “Method for diagnosing and treating Crohn's disease” (priority 2004, dated 2015):
# Test system: E. coli LF82 strain (adhesion to the brush border of the enterocytes via the type 1 pili)
# Test: Assay of inhibition by D-mannose of adhesion of E. coli LF82 to isolated enterocytes
# Format: cell-based, Escherichia coli
# Conditions: for Adhesion index with 2% D-mannose: 2% (w/v) D-mannose, mean number of bacteria adhering to the brush border of an enterocyte; for Adhesion index (% relative) with 2% D-mannose: compared with absence of D-mannose = 100%
# Procedure: The adhesion trials were performed as described in Darfeuille-Michaud et al., (1990); S. Knutton et al., (1985) and B. Lafeuille et al., (1981). The frozen intestinal samples were washed 3 times in PBS and the ileal mucosa was scraped with a cover glass in order to detach the enterocytes in PBS buffer supplemented with 0.25 M EDTA. About 10^5 isolated enterocytes were mixed with 10^8 E. coli cells in MEM medium containing 10% fetal calf serum (FCS, Seromed). After incubating for 2 hours at 37° C. and with gentle stirring, the enterocytes were washed 3 times in PBS (pH 7.2). The adhesion of the bacteria was quantified by examining under a phase contrast microscope at magnification×1000. The counting was performed according to a double blind design in order to determine the number of E. coli adhering to the brush border of 30 to 50 enterocytes. The adhesion index is expressed as number of bacteria attached to the brush border of one enterocyte.
# The inhibitory power of D-mannose on the adhesion of the E. coli LF82 strain to the brush border of the enterocytes via the type 1 pili was tested. Adhesion trials were performed in the presence of 2% (w/v) D-mannose (Sigma) in MEM containing 10% FCS, the procedure being carried out as described above on enterocytes obtained from 3 CD patients (A, B and C) The results are presented in Table 3.
structure (smiles),measurement,setting,value
O=C[C@@H](O)[C@@H](O)[C@H](O)[C@H](O)CO [D-mannose],Adhesion index with 2% D-mannose,enterocytes of CD patient A,0.028
same,Adhesion index (% relative) with 2% D-mannose,enterocytes of CD patient A,2.7%
same,Adhesion index with 2% D-mannose,enterocytes of CD patient B,0.032
same,Adhesion index (% relative) with 2% D-mannose,enterocytes of CD patient B,2.1%
same,Adhesion index with 2% D-mannose,enterocytes of CD patient C,0.025
same,Adhesion index (% relative) with 2% D-mannose,enterocytes of CD patient C,1.4%
same,Effect on index of adhesion of the LF82 strain to the brush border of the enterocytes,"enterocytes of patients suffering from Crohn's disease, 2% D-mannose",significant reduction
